Laboratory results published in article PMC12073449, “Development of a Mechanism of Action-Reflective Cell-Based Reporter Gene Assay for Measuring Bioactivities of Therapeutic Glucagon-like Peptide-2 Analogues” (Molecules, 2025).
Ends that are not written are not given here.

Test system: HEK293-GLP-2R-Luc cells

In the case of “HGEGTFSSELATILDALAARDFINWLIATKITDKKKKKK-NH2 [glepaglutide]”, the “log2 (TD/Ctrl) CPEB2” value (Qvalue 1.61 × 10^−6) is reported as 1.107, the “log2 (TD/Ctrl) GPAT3” value (Qvalue 1.61 × 10^−6) is reported as 1.067 and the “log2 (TD/Ctrl) LBH” value (Qvalue 1.62 × 10^−11) is reported as 1.387. For the same substance, the “log2 (TD/Ctrl) CSRNP1” value (Qvalue 1.62 × 10^−22) was 2.05, the “log2 (TD/Ctrl) USP36” value (Qvalue 1.63 × 10^−11) was 1.039 and the “log2 (TD/Ctrl) DNER” value (Qvalue 1.71 × 10^−14) was 3.018. The “log2 (TD/Ctrl) LOC102724428” value (Qvalue 1.72 × 10^−7) was 1.373, the “log2 (TD/Ctrl) RELB” value (Qvalue 1.72 × 10^−7) was 1.9665 and the “log2 (TD/Ctrl) BMF” value (Qvalue 1.77 × 10^−4) was −1.178. For the same substance, the “log2 (TD/Ctrl) PBX1” value (Qvalue 1.77 × 10^−11) was −1.095, the “log2 (TD/Ctrl) TNFAIP3” value (Qvalue 1.80 × 10^−7) was 1.227 and the “log2 (TD/Ctrl) SCN9A” value (Qvalue 1.83 × 10^−18) was −1.8. For the same substance, the “log2 (TD/Ctrl) INPP5D” value (Qvalue 1.84 × 10^−5) was −2.417, the “log2 (TD/Ctrl) ICAM5” value (Qvalue 1.87 × 10^−4) was 1.744 and the “log2 (TD/Ctrl) ZNF503” value (Qvalue 1.87 × 10^−11) was −1.2971. For the same substance, the “log2 (TD/Ctrl) MFSD2A” value (Qvalue 1.88 × 10^−5) was 1.193, the “log2 (TD/Ctrl) ADA” value (Qvalue 1.89 × 10^−4) was 1.023 and the “log2 (TD/Ctrl) SV2C” value (Qvalue 1.91 × 10^−39) was 6.845. For the same substance, the “log2 (TD/Ctrl) ELL2” value (Qvalue 1.93 × 10^−15) was 1.192, the “log2 (TD/Ctrl) CD44” value (Qvalue 1.93 × 10^−23) was 2.115 and the “log2 (TD/Ctrl) CYB5D2” value (Qvalue 1.97 × 10^−6) was −1.056. For the same substance, the “log2 (TD/Ctrl) DOK3” value (Qvalue 2.01 × 10^−5) was −1.636, the “log2 (TD/Ctrl) TFPI2” value (Qvalue 2.01 × 10^−13) was 2.377 and the “log2 (TD/Ctrl) TUBB2A” value (Qvalue 2.02 × 10^−19) was 1.401. The “log2 (TD/Ctrl) SERTAD1” value (Qvalue 2.03 × 10^−14) was 1.452, the “log2 (TD/Ctrl) TRIM47” value (Qvalue 2.06 × 10^−4) was 1.231 and the “log2 (TD/Ctrl) CD68” value (Qvalue 2.06 × 10^−17) was 2.012. The “log2 (TD/Ctrl) FRMPD4” value (Qvalue 2.07 × 10^−4) was −1.078, the “log2 (TD/Ctrl) ETV4” value (Qvalue 2.09 × 10^−50) was 3.646 and the “log2 (TD/Ctrl) TUBA4A” value (Qvalue 2.12 × 10^−4) was 1.633. For the same substance, the “log2 (TD/Ctrl) SLC6A17” value (Qvalue 2.12 × 10^−19) was 2.784, the “log2 (TD/Ctrl) NAV2” value (Qvalue 2.21 × 10^−5) was 1.102 and the “log2 (TD/Ctrl) SOX2” value (Qvalue 2.21 × 10^−5) was −1.189. The “log2 (TD/Ctrl) IL6R” value (Qvalue 2.27 × 10^−19) was 1.742, the “log2 (TD/Ctrl) GPRC5A” value (Qvalue 2.28 × 10^−8) was 1.328 and the “log2 (TD/Ctrl) SLC25A25” value (Qvalue 2.28 × 10^−9) was 1.117. The “log2 (TD/Ctrl) UPP1” value (Qvalue 2.29 × 10^−9) was 1.296, the “log2 (TD/Ctrl) OLIG2” value (Qvalue 2.31 × 10^−9) was 2.054 and the “log2 (TD/Ctrl) TNC” value (Qvalue 2.37 × 10^−34) was 1.657. The “log2 (TD/Ctrl) GPR50” value (Qvalue 2.38 × 10^−8) was 2.002, the “log2 (TD/Ctrl) CPA4” value (Qvalue 2.40 × 10^−4) was 5.506 and the “log2 (TD/Ctrl) FAM217B” value (Qvalue 2.42 × 10^−6) was −1.106. For the same substance, the “log2 (TD/Ctrl) CCDC9” value (Qvalue 2.50 × 10^−4) was 1.137, the “log2 (TD/Ctrl) PLK3” value (Qvalue 2.50 × 10^−4) was 1.391 and the “log2 (TD/Ctrl) TCIM” value (Qvalue 2.51 × 10^−19) was 7.037. For the same substance, the “log2 (TD/Ctrl) NRP1” value (Qvalue 2.55 × 10^−11) was −1.191, the “log2 (TD/Ctrl) EPHA2” value (Qvalue 2.56 × 10^−11) was 1.303 and the “log2 (TD/Ctrl) DUSP4” value (Qvalue 2.57 × 10^−12) was 1.926. The “log2 (TD/Ctrl) MAFF” value (Qvalue 2.58 × 10^−27) was 3.639, the “log2 (TD/Ctrl) AMOT” value (Qvalue 2.58 × 10^−33) was −1.62 and the “log2 (TD/Ctrl) TNFRSF12A” value (Qvalue 2.59 × 10^−23) was 2.183. For the same substance, the “log2 (TD/Ctrl) ZFP36” value (Qvalue 2.68 × 10^−12) was 1.676, the “log2 (TD/Ctrl) ARL14” value (Qvalue 2.71 × 10^−4) was 3.565 and the “log2 (TD/Ctrl) JUNB” value (Qvalue 2.71 × 10^−23) was 2.192. For the same substance, the “log2 (TD/Ctrl) C1GALT1C1” value (Qvalue 2.74 × 10^−4) was −1.022, the “log2 (TD/Ctrl) UBALD2” value (Qvalue 2.76 × 10^−6) was 1.053 and the “log2 (TD/Ctrl) ZNF33B” value (Qvalue 2.82 × 10^−4) was −1.021. The “log2 (TD/Ctrl) YPEL4” value (Qvalue 2.87 × 10^−4) was 2.621, the “log2 (TD/Ctrl) WNT5A” value (Qvalue 2.87 × 10^−7) was −1.332 and the “log2 (TD/Ctrl) FLNC” value (Qvalue 2.88 × 10^−7) was 1.243. For the same substance, the “log2 (TD/Ctrl) NFIL3” value (Qvalue 2.91 × 10^−8) was 1.177, the “log2 (TD/Ctrl) TXNIP” value (Qvalue 2.97 × 10^−31) was −1.9141 and the “log2 (TD/Ctrl) GLA” value (Qvalue 2.98 × 10^−32) was 1.68. The “log2 (TD/Ctrl) VAV1” value (Qvalue 3.01 × 10^−4) was 1.198, the “log2 (TD/Ctrl) RGS2” value (Qvalue 3.01 × 10^−9) was 1.337 and the “log2 (TD/Ctrl) NREP” value (Qvalue 3.01 × 10^−13) was −1.339. For the same substance, the “log2 (TD/Ctrl) B3GAT1” value (Qvalue 3.15 × 10^−7) was 1.485, the “log2 (TD/Ctrl) OLFM2” value (Qvalue 3.15 × 10^−7) was 1.732 and the “log2 (TD/Ctrl) IL15RA” value (Qvalue 3.17 × 10^−4) was 1.677. For the same substance, the “log2 (TD/Ctrl) TNFRSF9” value (Qvalue 3.27 × 10^−6) was 1.903, the “log2 (TD/Ctrl) RASD1” value (Qvalue 3.31 × 10^−6) was 2.273 and the “log2 (TD/Ctrl) TSC22D3” value (Qvalue 3.35 × 10^−6) was 1.67. The “log2 (TD/Ctrl) MSANTD3-TMEFF1” value (Qvalue 3.37 × 10^−6) was 1.009, the “log2 (TD/Ctrl) SKIDA1” value (Qvalue 3.39 × 10^−5) was −1.407 and the “log2 (TD/Ctrl) USH1C” value (Qvalue 3.44 × 10^−6) was 2.547. The “log2 (TD/Ctrl) TMEM231” value (Qvalue 3.45 × 10^−5) was 1.1218, the “log2 (TD/Ctrl) COL12A1” value (Qvalue 3.45 × 10^−9) was 1.157 and the “log2 (TD/Ctrl) BEGAIN” value (Qvalue 3.50 × 10^−4) was 1.974. For the same substance, the “log2 (TD/Ctrl) PHLDA2” value (Qvalue 3.51 × 10^−4) was 1.79, the “log2 (TD/Ctrl) PCDH7” value (Qvalue 3.52 × 10^−9) was −1.185 and the “log2 (TD/Ctrl) ULBP2” value (Qvalue 3.54 × 10^−4) was 1.312. For the same substance, the “log2 (TD/Ctrl) PHF21B” value (Qvalue 3.56 × 10^−4) was 1.711, the “log2 (TD/Ctrl) JUN” value (Qvalue 3.59 × 10^−15) was 1.216 and the “log2 (TD/Ctrl) PIM1” value (Qvalue 3.61 × 10^−6) was 1.177. The “log2 (TD/Ctrl) CSGALNACT1” value (Qvalue 3.63 × 10^−4) was 2.392, the “log2 (TD/Ctrl) MN1” value (Qvalue 3.74 × 10^−4) was 1.348 and the “log2 (TD/Ctrl) ATF3” value (Qvalue 3.77 × 10^−12) was 2.527. For the same substance, the “log2 (TD/Ctrl) CASP9” value (Qvalue 3.78 × 10^−13) was 1.439, the “log2 (TD/Ctrl) C11orf96” value (Qvalue 3.88 × 10^−22) was 4.461 and the “log2 (TD/Ctrl) FHL3” value (Qvalue 3.94 × 10^−5) was 1.045. For the same substance, the “log2 (TD/Ctrl) MRC2” value (Qvalue 4.00 × 10^−5) was 1.244 and the “log2 (TD/Ctrl) SH2D3C” value (Qvalue 4.00 × 10^−6) was 2.239.
